Results published in the supplement of paper PMC10883282.

How the values were obtained:
Test in all cases: relative viability vs DMSO control (72 h) (fraction); higher = more viable cells
[1] = tested on: RD-ES
How it was run: (§1)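 Densities for seeding sarcoma cell lines into 384-well plates were set to give 80–90% confluence. After 24 h, 2.5 µl of serially diluted compound from source plates of 10 mM to 0.0002 mM went in, and plates stayed 72 h at 37 °C in 5% CO2 with 0.1% DMSO vehicle and a 5 µM positive control. Percent growth from ATPLite readings, averaged over up to triplicate wells, served as relative viability, rescaled so 1 means full and 0 means none.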

[2] = tested on: SW684
How it was run: as §1

[3] = tested on: HT1080
How it was run: as §1

[4] = tested on: SYO-1
How it was run: as §1

[5] = tested on: KHOS-NP
How it was run: as §1

Cc1cn(-c2cc(NC(=O)c3ccc(C)c(Nc4nccc(-c5cnccn5)n4)c3)cc(C(F)(F)F)c2)cn1 [Radotinib]
relative viability
Details	[1]	[2]	[3]	[4]	[5]
0.00017 µM	0.982	1.13	1.07	0.976	1.12
0.00051 µM	1.02	1.17	1.06	0.978	1.09
0.00152 µM	1.01	1.2	1.07	0.987	1.11
0.00457 µM	1.02	1.21	1.07	0.967	1.11
0.01372 µM	1.005	1.17	1.07	0.989	1.12
0.04115 µM	1.01	1.19	1.06	0.988	1.12
0.1235 µM	1.03	1.26	1.07	0.993	1.11
0.3704 µM	1.01	1.33	1.09	0.945	1.1
1.111 µM	1	1.38	1.03	0.802	1.1
3.333 µM	0.991	1.24	1.12	0.688	1.09
10 µM	1.01	1.22	1.06	0.644	1.07

CO[C@H]1C[C@@H]2CC[C@@H](C)[C@@](O)(O2)C(=O)C(=O)N2CCCC[C@H]2C(=O)O[C@H]([C@H](C)C[C@@H]2CC[C@@H](O)[C@H](OC)C2)CC(=O)[C@H](C)/C=C(\C)[C@@H](O)[C@@H](OC)C(=O)[C@H](C)C[C@H](C)/C=C/C=C/C=C/1C [Rapamycin]
relative viability
Details	[1]	[2]	[3]	[4]	[5]
0.00017 µM	0.966	0.9947	1.04	0.954	1.04
0.00051 µM	0.962	0.936	1.03	0.893	1.05
0.00152 µM	0.868	0.812	1.02	0.875	1.07
0.00457 µM	0.833	0.743	0.97	0.836	1.07
0.01372 µM	0.77	0.678	0.966	0.826	1.06
0.04115 µM	0.712	0.681	0.972	0.792	1.06
0.1235 µM	0.665	0.718	0.932	0.767	1.03
0.3704 µM	0.677	0.718	0.917	0.734	1.04
1.111 µM	0.687	0.75	0.905	0.706	1.05
3.333 µM	0.647	0.752	0.869	0.683	1.02
10 µM	0.611	0.682	0.851	0.66	0.882

C=CC(=O)Nc1cccc(Nc2nc(Nc3ccc(N4CCN(C(C)=O)CC4)cc3OC)ncc2C(F)(F)F)c1 [Rociletinib]
relative viability
Details	[1]	[2]	[3]	[4]	[5]
0.00017 µM	0.965	1.13	1.07	0.99	1.09
0.00051 µM	0.962	1.16	1.06	0.983	1.1
0.00152 µM	0.961	1.16	1.05	0.949	1.113
0.00457 µM	0.979	1.17	1.06	0.93	1.09
0.01372 µM	0.967	1.18	1.04	0.893	1.09
0.04115 µM	1	1.18	1.03	0.903	1.06
0.1235 µM	0.937	1.14	1.06	0.872	1.09
0.3704 µM	0.889	1.1	1.1	0.867	1.07
1.111 µM	0.673	1.004	1.03	0.749	1.06
3.333 µM	0.453	0.908	0.997	0.459	1.025
10 µM	0.125	0.666	0.454	0.118	0.537

CN(C)C[C@@H]1CCn2cc(c3ccccc32)C2=C(C(=O)NC2=O)c2cn(c3ccccc23)CCO1 [Ruboxistaurin]
relative viability
Details	[1]	[2]	[3]	[4]	[5]
0.00017 µM	0.981	1.12	1.06	0.962	1.09
0.00051 µM	0.993	1.157	1.1	0.9554	1.09
0.00152 µM	0.9893	1.158	1.05	0.962	1.06
0.00457 µM	0.988	1.17	1.04	0.941	1.07
0.01372 µM	0.952	1.16	1.05	0.931	1.06
0.04115 µM	0.978	1.11	1.06	0.933	1.08
0.1235 µM	0.956	1.15	1.08	0.899	1.073
0.3704 µM	0.993	1.16	1.03	0.849	1.093
1.111 µM	0.96	1.14	1.08	0.79	1.1
3.333 µM	0.862	1.15	1.12	0.347	1.073
10 µM	0.0404	0.857	0.904	-0.0266	1.045

CN1CCN(CCOc2cc(OC3CCOCC3)c3c(Nc4c(Cl)ccc5c4OCO5)ncnc3c2)CC1 [Saracatinib]
relative viability
Details	[1]	[2]	[3]	[4]	[5]
0.00017 µM	0.975	1.11	1.05	1.02	1.094
0.00051 µM	1	1.15	1.04	1.02	1.1
0.00152 µM	0.99	1.16	1.05	0.971	1.08
0.00457 µM	1.01	1.177	1.01	0.965	1.07
0.01372 µM	0.979	1.15	1.022	0.958	1.07
0.04115 µM	0.982	1.17	1.02	0.917	1.061
0.1235 µM	0.966	1.14	1.053	0.91	1.06
0.3704 µM	0.935	1.15	1.04	0.826	1.05
1.111 µM	0.898	1.07	1.01	0.66	0.994
3.333 µM	0.858	1.05	0.952	0.481	0.862
10 µM	0.735	1.08	0.859	0.389	0.693

CNC(=O)c1cc(Oc2ccc(NC(=O)Nc3ccc(Cl)c(C(F)(F)F)c3)cc2)ccn1 [Sorafenib]
relative viability
Details	[1]	[2]	[3]	[4]	[5]
0.00017 µM	0.972	1.2	1.06	0.968	1.09
0.00051 µM	0.98	1.2	1.06	0.967	1.09
0.00152 µM	0.963	1.18	1.1	0.96	1.1
0.00457 µM	0.992	1.19	1.08	0.95	1.09
0.01372 µM	1	1.16	1.07	0.948	1.08
0.04115 µM	0.987	1.2	1.07	0.944	1.1
0.1235 µM	0.987	1.23	1.08	0.916	1.103
0.3704 µM	0.992	1.27	1.12	0.773	1.08
1.111 µM	0.994	1.32	1.102	0.626	0.993
3.333 µM	0.903	0.938	0.94	0.509	0.534
10 µM	0.274	0.276	0.0932	0.137	0.375

CCN(c1cc(-c2ccc(CN3CCOCC3)cc2)cc(C(=O)NCc2c(C)cc(C)[nH]c2=O)c1C)C1CCOCC1 [Tazemetostat]
relative viability
Details	[1]	[2]	[3]	[4]	[5]
0.00017 µM	0.984	1.05	1.09	1.03	1.05
0.00051 µM	1	1.092	1.1	1	1.06
0.00152 µM	0.989	1.11	1.08	1.02	1.06
0.00457 µM	0.965	1.1	1.09	1	1.07
0.01372 µM	0.968	1.12	1.085	0.994	1.04
0.04115 µM	1.01	1.12	1.07	1.006	1.04
0.1235 µM	0.975	1.12	1.09	1	1.015
0.3704 µM	0.971	1.11	1.1	0.95	0.997
1.111 µM	1	1.12	1.071	0.953	0.98
3.333 µM	0.988	1.14	1.08	0.915	0.998
10 µM	0.98	1.1	1.01	0.873	0.934

Cc1cccc(-c2[nH]c(CNc3ccccc3F)nc2-c2ccc3ncnn3c2)n1 [Vactosertib]
relative viability
Details	[1]	[2]	[3]	[4]	[5]
0.00017 µM	0.9791	1.15	1.02	0.9167	1.05
0.00051 µM	0.97	1.08	1	0.925	1.05
0.00152 µM	0.974	1.08	0.967	0.929	1.05
0.00457 µM	0.958	1.1	1.01	0.895	1.04
0.01372 µM	0.97	1.07	1.042	0.894	1.03
0.04115 µM	0.973	1.06	1.01	0.872	1.02
0.1235 µM	0.971	1.07	1.04	0.86	1.046
0.3704 µM	0.964	1.04	1.05	0.808	1.05
1.111 µM	0.945	1.08	1.02	0.773	1.05
3.333 µM	0.925	1.07	1.02	0.697	1.05
10 µM	0.865	1.11	1.01	0.591	1.011
